One data set has as its system SARS-CoV-2 (B.1). The format is cell-based.
The test system of data set [1] is HEK293T-ACE2-TMPRSS2 cells.
The subject of data set [2] is COVID-19. Conditions: COVID-19 patients, treatment for 20 days ref Hoertel, et al., 2021b; cited from earlier work.
A further data set concerns Sigma-1 receptor (S1R). Conditions: cited from earlier work.
A short description of the next data set: in vitro. Conditions: human.
The test system of the next data set is Zaire Ebola virus (EBOV). Conditions: cited from earlier work.
Another data set concerns S2R. Conditions: ref Robson et al., 2012; cited from earlier work.
Data set [3] has as its system ACE2. The format is cell-based, human.
Data set [4] has as its system TMPRSS2. Type of data set: cell-based, human.
Data set [5] relates to COVID-19. Conditions: follow up randomized controlled trial ref Reis et al., 2021; cited from earlier work.
The subject of data set [6] is SARS-CoV-2 B.1.1.7 (alpha). The format is cell-based.
In data set [7] the test system is SARS-CoV-2 B.1.351 (beta). Type of data set: cell-based.
Data set [8] deals with SARS-CoV-2 B.1.617.2 (delta). The format is cell-based.
In data set [9] the test system is ACE2. Type of data set: cell-based, human. This is another data set of the same source.
The subject of data set [10] is TMPRSS2. The format is cell-based, human. The source holds these as a separate data set.
The conditions of data set [11]: samples collected from pilot fatalities ref Johnson et al., 2007; cited from earlier work.
Where [12] appears, read: ref Narita et al., 1996, Sukhatme et al., 2021.

“Also recorded” adds a separate entry of the source. Like-named read-outs stand apart in the source and are kept apart here.

Consider `COc1ccc(C(CN(C)C)C2(O)CCCCC2)cc1` (stereo not shown) [Venlafaxine], for which, in the data set on SARS-CoV-2 (B.1), the “genome copies of SARS-CoV-2 (qRT-PCR)” value is “ineffective” and the “infectious virus particles (TCID50 assay)” value (“infectious virus particles” below) is “ineffective”. In [1], the CC50 entry is recorded as “No fitting”; the “cell viability (ATP level)” value was “all the compounds, except (E) venlafaxine and (F) reboxetine reduced ATP levels”. Moreover, the “viability of infected Calu-1 cells (ATP level)” value with Calu-1 cells is recorded as “decreased the cell viability”. In addition, the “risk of intubation or death by COVID-19” value with COVID-19 [2] was “reduce the risk of intubation or death”. Besides, in the data set with Sigma-1 receptor (S1R) (ref Ishima et al., 2014), the “affinity to S1R” value was “very weak affinity”.

With `O=c1[nH]c2ccccc2n1C1CCN(CCCC(c2ccc(F)cc2)c2ccc(F)cc2)CC1` [Pimozide], the “cell viability (ATP level) in non-infected and infected cells” value in [1] is on record as “Reduction”. The compound also returned a CC50 in “in vitro” of 15 µM.

As to `CN[C@H]1CC[C@@H](c2ccc(Cl)c(Cl)c2)c2ccccc21` [sertraline], the “Zaire Ebola virus (EBOV) entry to target cells” value (“Zaire Ebola virus (EBOV) entry” below) in the data set with Zaire Ebola virus (EBOV) is “reduce the Zaire Ebola virus (EBOV) entry”. Besides, the “binding to S1R” value in the data set with Sigma-1 receptor (S1R) (setting [12]) is reported as “bind to S1R”.

As for `CN(C)CCCN1c2ccccc2CCc2ccccc21` [Imipramine], in the data set with SARS-CoV-2 (B.1), the “genome copies of SARS-CoV-2 (qRT-PCR)” value is given as “reducing the genome copies” and the “infectious virus particles” value is “failed to effect the TCID50”. For the same compound, in data set [1], the “cell viability (ATP level)” value is “reduced ATP levels”; the “cell viability (ATP level) in non-infected and infected cells” value is on record as “Reduction”. Moreover, in the data set on Calu-1 cells, the “viability of infected Calu-1 cells (ATP level)” value was “All compounds, except for imipramine, decreased the cell viability”. Moreover, the “binding to S1R” value in the data set with Sigma-1 receptor (S1R) (setting [12]) was “bind to S1R”. For the same compound, the CC50 in “in vitro” stood at 68.6 µM.

As to `Fc1ccc([C@@H]2CCNC[C@H]2COc2ccc3c(c2)OCO3)cc1` [Paroxetine], in [1], the “cell viability (ATP level) in non-infected and infected cells” value is recorded as “Reduction”. For the same compound, the “Zaire Ebola virus (EBOV) entry” value with Zaire Ebola virus (EBOV) is on record as “reduce the Zaire Ebola virus (EBOV) entry”. In the data set on Sigma-1 receptor (S1R) (setting [12]), the “binding to S1R” value is “bind to S1R”. The CC50 in the data set “in vitro” was 22.1 µM.

Consider `CN(C)CCC[C@@]1(c2ccc(F)cc2)OCc2cc(C#N)ccc21` [escitalopram], for which the “risk of intubation or death by COVID-19” value in the data set on COVID-19 [2] is given as “reduce the risk of intubation or death”.

Take `CNCCCN1c2ccccc2CCc2ccccc21` [Desipramine]: in data set [1], the “cell viability (ATP level) in non-infected and infected cells” value is listed as “Reduction”. Further, the “binding to S1R” value in the data set with Sigma-1 receptor (S1R) (setting [12]) is given as “bind to S1R”. In addition, the CC50 in “in vitro” amounted to 68.9 µM.

On to `CNC1(c2ccccc2Cl)CCCCC1=O` (stereo not shown) [Ketamine], for which the “binding to S1R” value with Sigma-1 receptor (S1R) (ref Robson et al., 2012) was “can bind to both S1R and S2R”. In addition, in the data set with S2R, the “binding to S2R” value was “can bind to both S1R and S2R”.

As for `CN(C)CCCC1(c2ccc(F)cc2)OCc2cc(C#N)ccc21` (stereo not shown) [Citalopram], in the data set with SARS-CoV-2 (B.1), the “genome copies of SARS-CoV-2 (qRT-PCR)” value is “clearly reduced” and the “infectious virus particles” value is reported as “clearly reduced”. For the same compound, the “cell viability (ATP level) in non-infected and infected cells” value in data set [1] is given as “Reduction”. The “viability of infected Calu-1 cells (ATP level)” value in the data set on Calu-1 cells is listed as “decreased the cell viability”. In addition, in the data set with Sigma-1 receptor (S1R) (setting [12]), the “binding to S1R” value is “bind to S1R”. The CC50 in the data set “in vitro” amounted to 274 µM.

On to `CN(C)CCCN1c2ccccc2Sc2ccc(Cl)cc21` [Chlorpromazine], for which, in the data set with SARS-CoV-2 (B.1), the “amount of infectious virus (TCID50 assay)” value is reported as “failed to observe diminished amount of infectious virus” and the “total amount of virus / genome copy number (qRT-PCR)” value is recorded as “able to reduce the total amount of virus”. Also, the “ACE2 mRNA level” value with ACE2 [3] is recorded as “induced a reduction of this target”. For the same compound, the “TMPRSS2 mRNA level” value in the data set with TMPRSS2 [4] is “remained ineffective”. For the same compound, the “cell viability (ATP level) in non-infected and infected cells” value in data set [1] is “Reduction”. In the data set on Calu-1 cells, the “viability of infected Calu-1 cells (ATP level)” value is listed as “slight but significant reduction in the viability”. The same compound yielded a CC50 in “in vitro” of 15.9 µM.

Turning to `CN(C)CCCN1c2ccccc2CCc2ccc(Cl)cc21` [Clomipramine], in the data set on SARS-CoV-2 (B.1), the “genome copies of SARS-CoV-2 (qRT-PCR)” value is “clearly reduced” and the “infectious virus particles” value is on record as “clearly reduced”. Besides, in the data set with ACE2 [3], the “ACE2 mRNA level” value was “induced a reduction of this target”. Also, in the data set on TMPRSS2 [4], the “TMPRSS2 mRNA level” value is “remained ineffective”. Further, the “cell viability (ATP level) in non-infected and infected cells” value in data set [1] is “Reduction”. Also, in the data set on Calu-1 cells, the “viability of infected Calu-1 cells (ATP level)” value is recorded as “decreased the cell viability”. The “Zaire Ebola virus (EBOV) entry” value in the data set on Zaire Ebola virus (EBOV) was “reduce the Zaire Ebola virus (EBOV) entry”. In “in vitro”, this compound displayed a CC50 of 65.7 µM.

On to `COCCCC/C(=N\OCCN)c1ccc(C(F)(F)F)cc1` [Fluvoxamine], for which the “cell viability (ATP level) in non-infected and infected cells” value in data set [1] is given as “Reduction”. In addition, the “hospitalization risk due to COVID-19” value in the data set on COVID-19 [5] was “helps with the reduction of hospitalization risk”. Moreover, in the data set with Sigma-1 receptor (S1R) (setting [12]), the “binding to S1R” value is “bind to S1R”. The CC50 in the data set “in vitro” turned out to be 75.3 µM.

For `OCCN1CCN(CCC=C2c3ccccc3Sc3ccc(C(F)(F)F)cc32)CC1` [Flupenthixol], in data set [1], the “cell viability (ATP level) in non-infected and infected cells” value is “Reduction”. For the same compound, the CC50 in “in vitro” was found to be 19.4 µM.

For the compound `CCOc1ccccc1OC(c1ccccc1)C1CNCCO1` (stereo not shown) [Reboxetine], in the data set with SARS-CoV-2 (B.1), the “genome copies of SARS-CoV-2 (qRT-PCR)” value is “clearly reduced” and the “infectious virus particles” value is given as “clearly reduced”.

Regarding `CNCCC(Oc1ccc(C(F)(F)F)cc1)c1ccccc1` (stereo not shown) [Fluoxetine], in the data set on SARS-CoV-2 (B.1), the “genome copies of SARS-CoV-2 (qRT-PCR)” value is “clearly reduced”. Besides, the “infectious virus particles” value with SARS-CoV-2 (B.1) is given as “clearly reduced”. For the same compound, the “TCID50 (infectious virus)” value in [6], in data set [7] and in [8] was “reduced” throughout. In addition, the “genome copy number (qRT-PCR)” value in data set [6], in [7] and in [8] was “reduced” throughout. Further, in the data set on ACE2 [3], the “ACE2 mRNA level” value is listed as “remained unaltered”. Moreover, the “TMPRSS2 mRNA level” value in the data set on TMPRSS2 [4] is “increased”. Also, the ACE2 protein level result with ACE2 [9] is on record as “does not exert any effect on the ACE2 expression”. Also, the TMPRSS2 protein level entry with TMPRSS2 [10] is on record as “significantly increased; also recorded: Despite not being statistically significant, fluoxetine also increased TMPRSS2”. Further, the “cell viability (ATP level) in non-infected and infected cells” value in data set [1] is “Reduction”. The “viability of infected Calu-1 cells (ATP level)” value in the data set on Calu-1 cells was “decreased the cell viability”. The “Calu-1 viability (ATP levels)” value with Calu-1 cells (human) is “slightly reduced the Calu-1 viability”. In addition, the “risk of intubation or death by COVID-19” value with COVID-19 [2] is “reduce the risk of intubation or death”. For the same compound, the “binding to S1R” value with Sigma-1 receptor (S1R) (setting [12]) was “bind to S1R”. In the data set “in vitro”, this compound gave a CC50 of 41.5 µM. The “mean concentration of fluoxetine in lungs” value in data set [11] is 19.6 µg/g.
